Assay results reported in patent publication US20180214560A1, “HPMA-DRUG CONJUGATES FOR THE TREATMENT OF ACUTE MYELOID LEUKEMIA” (University of Utah Research Foundation, priority 2015, published 2018).
Read-outs that look alike come from different tables or passages of the source.

How the values were obtained:
[1] = test system: HL-60 cells; assay: Cell cycle analysis by flow cytometry (propidium iodide); assay type: cell-based, human; conditions: 48 h; CYT=1 μM; DAU=0.04 μM; GDC=1 μM; JSK=0.5 μM
Method: HL-60 cells (2×10^5 cells/mL) were seeded in 6-well plates, and treated with drug alone or different combinations of two drugs at the following concentrations for each: […] JSK=0.5 μM. Following 48-h treatment, cells were harvested, fixed and stained with propidium iodide (PI) at room temperature in the dark. Cell cycle analysis was performed by flow cytometry using BD LSR Fortessa machine (BD Biosciences, San Jose, Calif.). Cell percentages in the different phases of cell cycle were analyzed using FlowJo software (Tree star, Ashland, Oreg.).

[2] = cited from earlier work
[3] = test system: HL-60 human AML cells; assay: In vitro cytotoxicity (CCK-8 assay); assay type: cell-based
Method: The cytotoxicity of free drugs (CYT, DAU, GDC, and JSK) and two polymeric conjugates (P-CYT, P-GDC) against HL-60 was measured using the CCK-8 assay (Dojindo, Kumamoto, Japan). The cells were seeded in 96-well plates at a density of 20,000 cells/well in RPMI-1640 media containing 2 mM L-glutamine and 10% FBS. Then, 50 μL media containing the drugs were added. The cells were incubated with free drugs (CYT, DAU, GDC, and JSK) or the polymeric conjugates (P-CYT, P-GDC) at a range of drug concentrations. After 48 h incubation, the number of viable cells was estimated using the CCK-8 kit according to manufacturer's protocol. After the cells were incubated with the reagent at 37° C. for 4 h, the absorbance was measured using a microplate reader at 450 nm (630 nm as reference). Viability of treated cells was calculated as a percentage of the viability of untreated controls.

[4] = test system: DOX resistant (A2780/AD) human ovarian carcinoma xenografts; conditions: resistant tumors (A2780/AD); cited from earlier work
[5] = humans; P-DOX in DOX equivalent; cited from earlier work
[6] = 37 °C, after 48 h, 100 μg CYT/mL
Method: The stability of free and HPMA copolymer-bound cytarabine in human plasma was evaluated. […] At selected time points, 5 μL tetrahydrouridine (THU, 1 mg/mL in DI H2O, used as inhibitor of cytidine deaminase to prevent cytarabine from deamination) was added to a vial containing 100 μL sample. For free drug, 1 mL of mixture of acetonitrile/methanol (9:1) was added to precipitate proteins. The vial was vortex-mixed and then centrifuged at 13,000 g for 10 min at 4° C. The supernatant was carefully transferred into a 2 mL vial that was placed into a 40° C. water bath and bubbled with nitrogen. After organic solvents were removed, the resulting dry residue was dissolved in 0.5 mL DI H2O with 0.1% TFA. The sample was filtered and then 10 μL was injected to an analytical C18 column (Zorbax 300SB, 5 μm, 4.6×250 mm) for HPLC analysis. The amount of intact CYT was calculated based on the area under the curve (AUC) recorded at 268 nm wavelength and calibration curve from a series of standard CYT concentrations. To determine the CYT stability in conjugate, 1-amino-2-propanol (10 μL) was added to the sample prior to plasma precipitation in order to cleave CYT from polymer backbone. Then the sample was examined following the same procedure as described above.

[7] = Homo sapiens, HL-60 cells, 48 h incubation, read-out: IC50

Compound	Change of G0/G1 phase population [1]	IC50 [3, 7] [nM]	Change of G2/M phase population [1]	Change of S phase population [1]	also measured
Cc1c(CN2CCN(C(=O)[C@H](C)O)CC2)sc2c(N3CCOCC3)nc(-c3cnc(N)nc3)nc12 [GDC, GDC-0980]	slight increase in the G0/G1 phase population	750	–	–	Solubility of free GDC [2]: poor solubility
CCOC(=O)N1CCN(/[N+]([O-])=N/Oc2ccc([N+](=O)[O-])cc2[N+](=O)[O-])CC1 [JSK, JS-K]	decrease in the G0/G1 population	–	did not make significant changes in those fractions	did not make significant changes in those fractions	IC50 ([3]; HL-60 cells, 48 h incubation, read-out: IC50): 440 nM
COc1cccc2c1C(=O)c1c(O)c3c(c(O)c1C2=O)C[C@@](O)(C(=O)CO)C[C@@H]3O[C@H]1C[C@H](N)[C@H](O)[C@H](C)O1 [DOX, doxorubicin]	–	–	–	–	Decrease of tumor size [4]: effective only in sensitive tumors; Maximum tolerated dose (MTD) [5]: 60-80 mg/m2
COc1cccc2c1C(=O)c1c(O)c3c(c(O)c1C2=O)C[C@@](O)(C(C)=O)C[C@@H]3O[C@H]1C[C@H](N)[C@H](O)[C@H](C)O1 [DAU, daunorubicin]	decrease in the G0/G1 population	–	accumulate in the G2/M phase	–	IC50 ([3]; Homo sapiens, HL-60, 48 h): 40 nM
Nc1ccn([C@@H]2O[C@H](CO)[C@@H](O)[C@@H]2O)c(=O)n1 [CYT, cytarabine]	decrease in the G0/G1 population	1050	–	arrested the cells in S phase	CYT still present in human plasma [6]: all free drug disappeared
